Source: ChEMBL document CHEMBL1201862, “PubChem BioAssay data set” (2004)
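Five compound concentrations were applied to cells in 96-well plates for 48 hours; endpoints were derived by simple linear interpolation of the resulting dose-response curve. GI50 is the concentration that inhibits growth by half.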 Activity calls are given as the source filed them. Cut-off read from the data, not from the text of the source: active = GI50 up to about 1.1 µM and inactive = higher.

How the values were obtained:
Experiment in all cases: growth of human tumour cells (NCI), 48 h
786-0 = system: 786-0
A549 = system: A549
ACHN = system: ACHN
CAKI-1 = system: CAKI-1
CCRF-CEM = system: CCRF-CEM
COLO 205 = system: COLO 205
DLD-1 = system: DLD-1
EKVX = system: EKVX
HCC 2998 = system: HCC 2998
HCT-116 = system: HCT-116
HCT-15 = system: HCT-15
HL-60 = system: HL-60
HOP-18 = system: HOP-18
HOP-62 = system: HOP-62
HT-29 = system: HT-29
IGROV-1 = system: IGROV-1
K562 = system: K562
KM-20L2 = system: KM-20L2
KM12 = system: KM12
LOX IMVI = system: LOX IMVI
LXFL 529 = system: LXFL 529
M14 = system: M14
M19-MEL = system: M19-MEL
MOLT-4 = system: MOLT-4
Malme-3M = system: Malme-3M
NCI-H226 = system: NCI-H226
NCI-H460 = system: NCI-H460
NCI-H522 = system: NCI-H522
OVCAR-3 = system: OVCAR-3
OVCAR-4 = system: OVCAR-4
OVCAR-5 = system: OVCAR-5
OVCAR-8 = system: OVCAR-8
RPMI-8226 = system: RPMI-8226
RXF 393 = system: RXF 393
RXF 631 = system: RXF 631
SF-268 = system: SF-268
SF-295 = system: SF-295
SF-539 = system: SF-539
SK-MEL-28 = system: SK-MEL-28
SK-MEL-2 = system: SK-MEL-2
SK-MEL-5 = system: SK-MEL-5
SN12C = system: SN12C
SNB-19 = system: SNB-19
SNB-75 = system: SNB-75
SNB-78 = system: SNB-78
SR = system: SR
SW-620 = system: SW-620
U-251 = system: U-251
UACC-257 = system: UACC-257
UACC-62 = system: UACC-62
UO-31 = system: UO-31
XF498 = system: XF498
A498 = system: A498
DMS-114 = system: DMS-114
DMS-273 = system: DMS-273
NCI-H23 = system: NCI-H23
TK-10 = system: TK-10

O=[N+]([O-])c1ccc(-c2noc(-c3ccccc3)c2C2=NCCN2)cc1
GI50 (786-0): 54 µM (inactive) | GI50 (A549): > 100 µM (inactive) | GI50 (ACHN): > 100 µM (inactive) | GI50 (CAKI-1): 40.3 µM (inactive) | GI50 (CCRF-CEM): > 100 µM (inactive) | GI50 (COLO 205): 45.5 µM (inactive) | GI50 (DLD-1): > 100 µM (inactive) | GI50 (EKVX): > 100 µM (inactive) | GI50 (HCC 2998): > 100 µM (inactive) | GI50 (HCT-116): 30.1 µM (inactive) | GI50 (HCT-15): > 100 µM | GI50 (HL-60): 55.3 µM (inactive) | GI50 (HOP-18): 21.1 µM (inactive) | GI50 (HOP-62): 29.9 µM (inactive) | GI50 (HT-29): 52.1 µM (inactive) | GI50 (IGROV-1): > 100 µM (inactive) | GI50 (K562): > 100 µM (inactive) | GI50 (KM-20L2): 40.5 µM (inactive) | GI50 (KM12): > 100 µM (inactive) | GI50 (LOX IMVI): 71 µM (inactive) | GI50 (LXFL 529): > 100 µM (inactive) | GI50 (M14): 87.9 µM (inactive) | GI50 (M19-MEL): > 100 µM (inactive) | GI50 (MOLT-4): > 100 µM (inactive) | GI50 (Malme-3M): > 100 µM (inactive) | GI50 (NCI-H226): 75.2 µM (inactive) | GI50 (NCI-H460): > 100 µM (inactive) | GI50 (NCI-H522): 20.5 µM (inactive) | GI50 (OVCAR-3): 28.6 µM (inactive) | GI50 (OVCAR-4): 77.6 µM (inactive) | GI50 (OVCAR-5): > 100 µM (inactive) | GI50 (OVCAR-8): > 100 µM (inactive) | GI50 (RPMI-8226): > 100 µM (inactive) | GI50 (RXF 393): 38.6 µM (inactive) | GI50 (RXF 631): 60.3 µM (inactive) | GI50 (SF-268): 63.2 µM (inactive) | GI50 (SF-295): 44.7 µM (inactive) | GI50 (SF-539): 42.7 µM (inactive) | GI50 (SK-MEL-28): > 100 µM (inactive) | GI50 (SK-MEL-2): > 100 µM (inactive) | GI50 (SK-MEL-5): 12.9 µM (inactive) | GI50 (SN12C): > 100 µM (inactive) | GI50 (SNB-19): 53.2 µM (inactive) | GI50 (SNB-75): 68.5 µM (inactive) | GI50 (SNB-78): 39.2 µM (inactive) | GI50 (SR): 81.8 µM (inactive) | GI50 (SW-620): > 100 µM (inactive) | GI50 (U-251): 84.5 µM (inactive) | GI50 (UACC-257): 41.2 µM (inactive) | GI50 (UACC-62): > 100 µM (inactive) | GI50 (UO-31): 24.9 µM (inactive) | GI50 (XF498): 70.6 µM (inactive)

CCOC(=O)C(C)(C)Oc1ccc2c(C)c(-c3ccc(Cl)cc3)c(=O)oc2c1
GI50 (786-0): > 100 µM (inactive) | GI50 (A498): > 100 µM (inactive) | GI50 (A549): 37.6 µM (inactive) | GI50 (ACHN): 98.6 µM (inactive) | GI50 (CCRF-CEM): 14.5 µM (inactive) | GI50 (COLO 205): 42.6 µM (inactive) | GI50 (DLD-1): 47.6 µM (inactive) | GI50 (DMS-114): 20.4 µM (inactive) | GI50 (DMS-273): 37.6 µM (inactive) | GI50 (EKVX): 70.3 µM (inactive) | GI50 (HCC 2998): 59 µM (inactive) | GI50 (HCT-116): 43 µM (inactive) | GI50 (HCT-15): 34.3 µM | GI50 (HL-60): 18.2 µM (inactive) | GI50 (HOP-62): 89.1 µM (inactive) | GI50 (HT-29): 20.7 µM (inactive) | GI50 (IGROV-1): 75.9 µM (inactive) | GI50 (K562): 14.7 µM (inactive) | GI50 (KM-20L2): 33.2 µM (inactive) | GI50 (LOX IMVI): 34.9 µM (inactive) | GI50 (LXFL 529): 34.1 µM (inactive) | GI50 (M14): 74.8 µM (inactive) | GI50 (M19-MEL): 54.2 µM (inactive) | GI50 (MOLT-4): 20 µM (inactive) | GI50 (Malme-3M): 33.3 µM (inactive) | GI50 (NCI-H226): 14.9 µM (inactive) | GI50 (NCI-H23): 19.6 µM (inactive) | GI50 (NCI-H460): > 100 µM (inactive) | GI50 (OVCAR-3): 85.1 µM (inactive) | GI50 (OVCAR-4): > 100 µM (inactive) | GI50 (OVCAR-8): > 100 µM (inactive) | GI50 (RPMI-8226): 22.6 µM (inactive) | GI50 (RXF 393): > 100 µM (inactive) | GI50 (RXF 631): 32.6 µM (inactive) | GI50 (SF-268): > 100 µM (inactive) | GI50 (SF-295): 79.6 µM (inactive) | GI50 (SF-539): > 100 µM (inactive) | GI50 (SK-MEL-28): > 100 µM (inactive) | GI50 (SK-MEL-2): > 100 µM (inactive) | GI50 (SK-MEL-5): 13.4 µM (inactive) | GI50 (SN12C): > 100 µM (inactive) | GI50 (SNB-19): 51.1 µM (inactive) | GI50 (SNB-75): 35.8 µM (inactive) | GI50 (SR): 27.7 µM (inactive) | GI50 (SW-620): > 100 µM (inactive) | GI50 (TK-10): > 100 µM (inactive) | GI50 (U-251): 42.4 µM (inactive) | GI50 (UACC-257): 43.8 µM (inactive) | GI50 (UACC-62): 32.5 µM (inactive) | GI50 (UO-31): 55.5 µM (inactive) | GI50 (XF498): 20.3 µM (inactive)
